Where a name gives a salt, the structure may show the parent alone.
What was measured:
Format in all cases: cell-based
[1] = tested on: endothelial cells differentiated from induced pluripotent stem cells; assay: Apoptosis of endothelial cells (Caspase-Glo 3/7 assay); details: FIG. 7
Procedure: , apoptosis of endothelial cell was measured according to the manufactural instructions using the Caspase-Glo 3/7 assay systems kit (Promega, catalog number G8091), and the results are shown in FIG. 4.

[2] = tested on: endothelial cells differentiated from induced pluripotent stem cells; assay: Tube formation ability of endothelial cells on Matrigel; details: 16 to 24 hours of incubation on Matrigel, FIGS. 8 and 9
Procedure: (§1) In order to evaluate the functional abnormality of endothelial cells that may form vascular structures, the tube formation ability was measured. After seeding endothelial cells into a 24 or 12-well plate applied with Matrigel (Corning, catalog number CB-40234). After 16 to 24 hours of incubation, the level of tube formation was compared and analyzed.
In order to confirm the reliability and effectiveness of the uremic vasculopathy endothelial cell model prepared by treating endothelial cells with the uremic toxin mixture of the present invention, the level of tube formation was measured to compare effects of the serum of ESKD patient undergoing hemodialysis and the uremic toxin mixture of the present invention by measuring the tube formation level.

[3] = tested on: endothelial cells derived from normal control induced pluripotent stem cells; assay: Drug effect verification by tube formation in uremic vasculopathy endothelial cell model; details: cells exposed to uremic toxin mixture or ESKD patient serum, then treated with drug, FIG. 11
Procedure: as §1
In order to confirm whether the effect of the drug can be verified using the uremic vasculopathy endothelial cell model prepared by treating with the uremic toxin mixture of the present invention, the uremic toxin mixture of the present invention or ESKD patient's serum was applied to endothelial cells derived from normal control induced pluripotent stem cells. Then, SD-208 (TGF-β inhibitor) and losartan (angiotensin receptor blocker) were treated to measure the level of tube formation in order to examine respective effects. The endothelial cells' tube formation ability was measured and compared in the uremic toxin mixture of the present invention (UT-F, UT-H, uric acid 3 (UA 3)), serum of patients with chronic kidney disease (patient 2, patient 4), normal control serum (control 1) and cell culture medium alone (media only).

Compound | apoptosis of endothelial cells ([1]; single uremic toxin at 1 mM) | inhibition of endothelial cell tube formation after drug treatment [3] | also measured
NC(N)=O [urea, Urea] |  |  | apoptosis of endothelial cells ([1]; single uremic toxin at 50 mM): not significantly promoted
O=c1[nH]c(=O)c2[nH]c(=O)[nH]c2[nH]1 [uric acid, Uric acid] | significantly promoted |  | tube formation ability of endothelial cells [2]: well maintained
O=S(=O)(O)Oc1c[nH]c2ccccc12 [indoxyl sulfate, Indoxyl sulfate] | not significantly promoted |  | 
Fc1ccc(Cl)cc1-c1nc(Nc2ccncc2)c2nccnc2n1 [SD-208] |  | alleviated | 
CCCCc1nc(Cl)c(CO)n1Cc1ccc(-c2ccccc2-c2nn[nH]n2)cc1 [losartan] |  | alleviated | 

Source: patent publication US20220017861A1, “UREMIC VASCULOPATHY MODEL USING ENDOTHELIAL CELLS DERIVED FROM INDUCED PLURIPOTENT STEM CELLS AND UREMIC COMPLEX, AND USE THEREOF” (SAMSUNG LIFE PUBLIC WELFARE FOUNDATION, priority 2018, published 2022)
